Measurements reported in US4859671A, “2-substituted 1,2-benzisothiazol-3(2H)-one 1,1-dioxide useful as an anxiolytic agent” (American Home Products Corporation, priority 1988, dated 1989).

Legend:
[1] = molecular target: T1, 5-HT1A receptor (Rattus norvegicus, UniProt P19327); conditions: for inhibition at 1 µM: pH 7.7, read-out: % Inhibition at 1 μM, 5-HT1A Receptor Binding
T1 sequence (P19327 1-422): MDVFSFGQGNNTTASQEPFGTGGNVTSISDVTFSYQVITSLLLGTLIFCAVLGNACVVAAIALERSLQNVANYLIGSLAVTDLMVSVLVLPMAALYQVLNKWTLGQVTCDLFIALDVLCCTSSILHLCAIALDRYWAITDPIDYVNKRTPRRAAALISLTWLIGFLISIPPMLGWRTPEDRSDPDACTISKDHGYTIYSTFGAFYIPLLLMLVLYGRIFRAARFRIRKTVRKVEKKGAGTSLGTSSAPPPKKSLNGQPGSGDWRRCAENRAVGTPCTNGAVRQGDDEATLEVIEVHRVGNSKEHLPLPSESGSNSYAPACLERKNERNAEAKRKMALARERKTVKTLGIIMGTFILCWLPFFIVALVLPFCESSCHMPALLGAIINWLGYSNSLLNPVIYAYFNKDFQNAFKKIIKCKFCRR
Procedure: The assay is carried out as follows:
Hippocampal tissue from male Sprague Dawley rats is dissected and homogenized on ice in 40 volumes of buffer A (50 mM Tris-HCl, pH=7.7) using a Polytron homogenizer at setting 5 for 3×15-second bursts. The homogenate is then centrifuged at 20,000 rpm (RC5-B; 50,000 g), and the supernatant is discarded. The pellet is resuspended in 40 volumes of the same buffer and incubated at 37° C. for 10 minutes to aid in the removal of endogenous serotonin. The homogenate is then centrifuged (as above) and the supernatant discarded. The pellet is then resuspended in 100 volumes of buffer B (50 mM Tris HCl, pH=7.7 containing 0.1% ascorbate, 10 μM pargyline and 4 mM CaCl2) and sonicated. An aliquot is taken for protein determination by the Lowry method and the remainder stored frozen at -70° C. until used.
At the end of the incubation, 3 mL of cold buffer A are added to each tube, and the contents rapidly filtered through Whatman GF/B glass-fiber filters. The filters are then rapidly washed 2 times with 3 mL of the same buffer, placed in scintillation vials, and shaken for 15 minutes with 10 mL of Hydrofluor (National Diagnostics) scintillation cocktail. The vials are then counted in a Packard 460CD scintillation counter.
Specific binding is defined as total binding less binding in the presence of excess unlabeled serotonin (1 μM). Binding in the presence of various concentrations of test drug is expressed as a percent of specific binding when no drug is present. […] Ki (inhibition constant) for the test drug is then calculated by the formula: [formula]

[2] = tested on: anxiety; conditions: cited from earlier work; for efficacy in the treatment of anxiety neuroses (in words): clinical, compared with diazepam
[3] = tested on: 5-HT1A receptors; conditions: compared with buspirone; cited from earlier work

SMILES	inhibition at 1 µM [1]	anxiolytic activity in clinical trials (in words) [2]	efficacy in the treatment of anxiety neuroses (in words) [2]	further results
O=C1CC2(CCCC2)CC(=O)N1CCCCN1CCN(c2ncccn2)CC1 [Buspirone]	94%	–	–	–
O=C1c2ccccc2S(=O)(=O)N1CCCCN1CCN(c2nccc3ccncc23)CC1 [Example 1, 2-[4-[4-(2,7-Naphthyridin-1-yl)-1-piperazinyl]butyl]-1,2-benzoisothiazol-3(2H)-one 1,1-Dioxide]	100%	–	–	affinity for the 5-HT1A receptor site (in words) ([1]; conclusion from Table 1): high affinity
CC1(C)CC(=O)N(CCCCN2CCN(c3ncccn3)CC2)C(=O)C1 [Gepirone, 4,4-dimethyl-1-[4-[4-(2-pyrimidinyl)-1-piperazinyl]butyl]-2,6-piperidinedione]	–	potent anxiolytic drugs	comparable to the benzodiazepine diazepam	–
O=C1c2ccccc2S(=O)(=O)N1CCCCN1CCN(c2ncccn2)CC1 [ipsapirone]	–	potent anxiolytic drugs	–	selectivity for 5-HT1A receptors relative to buspirone (in words) [3]: higher degree of selectivity for 5-HT1A receptors than buspirone
Cc1nc2sccn2c(=O)c1CCN1CCC(=C(c2ccc(F)cc2)c2ccc(F)cc2)CC1 [ritanserin]	–	–	comparable to the benzodiazepine diazepam	–
